Test results published in publication PMC10763817, “Development of dual enzyme responsive molecular AND logic gate” (Turkish Journal of Chemistry, 2021).

Test system: T1, tyrosinase (mushroom tyrosinase, EC 1.14.18.1)
T1 construct: gene PPO3; commercial native enzyme from mushroom (Sigma)
Test: fluorescence of released resorufin (ex […] nm, em […] nm), Lineweaver-Burk plot
Type: biochemical
Conditions: tyrosinase 3 U/mL alone, no esterase; 10-50 μM compound 2; PBS pH 7.4, 37 °C

`CC(=O)Oc1cccc(COc2ccc3nc4ccc(=O)cc-4oc3c2)c1` [compound 2, 3-(((3-oxo-3H-phenoxazin-7-yl)oxy)methyl)phenyl acetate] was tested, and the Km was 44.3 µM.
